Test in all cases: Protein kinase assay (Reaction Biology)
Common to all, as to format: biochemical

In one assay the target is T1, ABL1 (Homo sapiens, UniProt P00519).
T1 construct: purchased Reaction Biology Corporation
To be noted: duplicate, 200 μM ATP, read-out: % Enzyme Activity (Relative to DMSO Controls) ABL1. How it is done:
(§1) Therefore, selected compound 5a was screened against several protein kinases to explore the potential of these hybrid compounds as kinase inhibitors. The screening of compound 5a was performed on a panel of 9 kinases, viz., ABL1, c-Kit, c-Src, CDK2/cyclin A1, CSK, EGFR, mTOR/FRAP1, p38a/MAPK14, PKCa, and PI3K, at a dose of 20 μM. The respective positive controls were used for each kinase, and the kinase reaction was performed at 200 μM ATP concentration for all the kinases except for PI3K, which was performed at 10 µM ATP (Table 2). […] It appeared that compound 5a containing a 3-position substitution with an isoxazole ring and a 4-position with a carbonyl group has a detrimental effect on kinase inhibition. Previously 3-substituted benzopyran compound with a short alkyl chain of urea (NH-CO-NH-Et/Me/iPr) was reported with Abl kinase inhibitory activity in the range of 4–27 μM [36]. […] Due to prominent antiproliferative activity, these compounds may have some other targets for anticancer activity.
(§2) Compound 5a was tested at a single dose of 20 μM against 9 kinases, viz., Abl1, c-Kit, c-Src, CDK2/cyclin A1, CSK, EGFR, mTOR/FRAP1, p38a/MAPK14, PKCa, and PI3K using our previously reported protocol in duplicate by Reaction Biology Corporation. The respective positive controls, e.g., staurosporine for all the kinases, except SB202190 for P38a/MAP14 and P1-103 for mTOR/FRAP1, were used, and the kinase reaction was performed at 200 μM ATP concentration for all the kinases except for PI3K, which was performed at 10 µM ATP.

For a further assay, the target named is T2, CDK2/cyclin A1 (Homo sapiens, UniProt P24941).
T2 construct: purchased Reaction Biology Corporation
To be noted: duplicate, 200 μM ATP, read-out: % Enzyme Activity (Relative to DMSO Controls) CDK2/cyclin A1. The method, then: as §1, §2

The next assay concerns the target T3, CSK (Homo sapiens, UniProt P41240).
T3 construct: purchased Reaction Biology Corporation
Particulars: duplicate, 200 μM ATP, read-out: % Enzyme Activity (Relative to DMSO Controls) CSK. The method, then: as §1, §2

For another assay, the target named is T4, PI3K (p110a/p65a) (Homo sapiens, UniProt P42336).
T4 construct: purchased Reaction Biology Corporation
To be noted: duplicate, 10 µM ATP, read-out: % Enzyme Activity (Relative to DMSO Controls) PI3K (p110a/p65a). The method, then: as §1, §2

Another assay concerns the target T5, PKCa (Homo sapiens, UniProt P17252).
T5 construct: purchased Reaction Biology Corporation
Particulars: duplicate, 200 μM ATP, read-out: % Enzyme Activity (Relative to DMSO Controls) PKCa. The method, then: as §1, §2

A further assay addresses T6, c-Kit (Homo sapiens, UniProt P10721).
T6 construct: purchased Reaction Biology Corporation
To be noted: duplicate, 200 μM ATP, read-out: % Enzyme Activity (Relative to DMSO Controls) c-Kit. How it is done:
as §1, §2

The next assay addresses T7, c-Src (Homo sapiens, UniProt P12931).
T7 construct: purchased Reaction Biology Corporation
To be noted: duplicate, 200 μM ATP, read-out: % Enzyme Activity (Relative to DMSO Controls) c-Src. The method, then:
as §1, §2

The next assay deals with T8, mTOR/FRAP1 (Homo sapiens, UniProt P42345).
T8 construct: purchased Reaction Biology Corporation
To be noted: duplicate, 200 μM ATP, read-out: % Enzyme Activity (Relative to DMSO Controls) mTOR/FRAP1. The method, then:
as §1, §2

Another assay deals with T9, p38a/MAPK14 (Homo sapiens, UniProt Q16539).
T9 construct: purchased Reaction Biology Corporation
To be noted: duplicate, 200 μM ATP, read-out: % Enzyme Activity (Relative to DMSO Controls) p38a/MAPK14. The method, then:
as §1, §2

Each structure is given as a SMILES string.

T4 sequence (P42336 whole entry): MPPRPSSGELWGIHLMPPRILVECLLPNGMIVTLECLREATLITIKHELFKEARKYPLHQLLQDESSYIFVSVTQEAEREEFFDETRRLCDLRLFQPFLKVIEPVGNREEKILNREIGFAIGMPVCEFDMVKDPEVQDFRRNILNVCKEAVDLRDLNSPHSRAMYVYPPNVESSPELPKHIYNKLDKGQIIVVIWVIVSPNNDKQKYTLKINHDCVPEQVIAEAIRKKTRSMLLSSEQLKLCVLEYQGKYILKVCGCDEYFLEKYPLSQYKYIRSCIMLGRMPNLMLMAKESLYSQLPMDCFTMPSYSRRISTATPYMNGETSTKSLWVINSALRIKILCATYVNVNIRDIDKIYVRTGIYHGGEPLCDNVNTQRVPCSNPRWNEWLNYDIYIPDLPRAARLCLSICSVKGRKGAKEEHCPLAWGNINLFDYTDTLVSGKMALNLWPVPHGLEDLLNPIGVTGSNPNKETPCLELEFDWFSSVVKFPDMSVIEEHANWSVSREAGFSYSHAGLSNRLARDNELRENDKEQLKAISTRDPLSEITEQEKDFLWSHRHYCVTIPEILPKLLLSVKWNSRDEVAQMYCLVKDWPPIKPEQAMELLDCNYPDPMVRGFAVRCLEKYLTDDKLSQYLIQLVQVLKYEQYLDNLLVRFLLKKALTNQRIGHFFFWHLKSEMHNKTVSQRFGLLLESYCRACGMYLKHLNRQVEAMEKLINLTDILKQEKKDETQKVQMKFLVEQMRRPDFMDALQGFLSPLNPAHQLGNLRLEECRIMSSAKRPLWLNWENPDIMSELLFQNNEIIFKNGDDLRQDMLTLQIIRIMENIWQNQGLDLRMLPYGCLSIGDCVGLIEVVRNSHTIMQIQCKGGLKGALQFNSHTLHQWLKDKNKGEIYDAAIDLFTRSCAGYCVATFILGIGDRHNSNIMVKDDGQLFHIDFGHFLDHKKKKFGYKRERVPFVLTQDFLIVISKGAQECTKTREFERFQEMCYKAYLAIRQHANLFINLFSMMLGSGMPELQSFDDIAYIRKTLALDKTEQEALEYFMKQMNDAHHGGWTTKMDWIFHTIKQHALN
T1 sequence (P00519 whole entry): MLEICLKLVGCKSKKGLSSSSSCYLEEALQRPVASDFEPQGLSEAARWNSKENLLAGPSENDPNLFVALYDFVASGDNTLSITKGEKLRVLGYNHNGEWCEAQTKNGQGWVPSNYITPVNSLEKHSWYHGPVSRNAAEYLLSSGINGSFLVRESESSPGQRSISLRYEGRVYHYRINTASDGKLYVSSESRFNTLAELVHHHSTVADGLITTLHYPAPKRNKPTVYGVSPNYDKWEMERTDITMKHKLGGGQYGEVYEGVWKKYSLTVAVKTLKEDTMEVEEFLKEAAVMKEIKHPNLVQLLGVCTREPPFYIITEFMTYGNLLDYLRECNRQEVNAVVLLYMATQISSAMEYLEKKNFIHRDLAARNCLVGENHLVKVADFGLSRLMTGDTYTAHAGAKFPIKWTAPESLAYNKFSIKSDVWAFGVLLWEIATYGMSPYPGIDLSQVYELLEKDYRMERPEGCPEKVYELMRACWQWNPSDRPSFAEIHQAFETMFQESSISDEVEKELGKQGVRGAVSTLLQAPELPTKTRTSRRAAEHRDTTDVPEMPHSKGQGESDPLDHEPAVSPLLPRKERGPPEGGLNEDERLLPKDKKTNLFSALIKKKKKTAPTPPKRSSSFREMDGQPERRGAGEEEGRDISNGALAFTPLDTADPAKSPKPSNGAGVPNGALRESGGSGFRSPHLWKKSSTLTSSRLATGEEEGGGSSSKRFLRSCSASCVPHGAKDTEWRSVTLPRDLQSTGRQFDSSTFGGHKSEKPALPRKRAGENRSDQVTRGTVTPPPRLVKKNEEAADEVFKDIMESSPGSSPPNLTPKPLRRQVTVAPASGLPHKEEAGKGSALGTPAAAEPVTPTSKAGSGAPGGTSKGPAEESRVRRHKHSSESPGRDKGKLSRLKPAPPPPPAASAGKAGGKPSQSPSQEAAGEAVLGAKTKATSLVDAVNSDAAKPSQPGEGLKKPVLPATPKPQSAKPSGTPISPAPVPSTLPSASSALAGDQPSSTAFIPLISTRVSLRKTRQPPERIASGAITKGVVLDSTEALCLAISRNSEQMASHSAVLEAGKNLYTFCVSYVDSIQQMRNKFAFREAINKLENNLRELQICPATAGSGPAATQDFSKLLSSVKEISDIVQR
T7 sequence (P12931 whole entry): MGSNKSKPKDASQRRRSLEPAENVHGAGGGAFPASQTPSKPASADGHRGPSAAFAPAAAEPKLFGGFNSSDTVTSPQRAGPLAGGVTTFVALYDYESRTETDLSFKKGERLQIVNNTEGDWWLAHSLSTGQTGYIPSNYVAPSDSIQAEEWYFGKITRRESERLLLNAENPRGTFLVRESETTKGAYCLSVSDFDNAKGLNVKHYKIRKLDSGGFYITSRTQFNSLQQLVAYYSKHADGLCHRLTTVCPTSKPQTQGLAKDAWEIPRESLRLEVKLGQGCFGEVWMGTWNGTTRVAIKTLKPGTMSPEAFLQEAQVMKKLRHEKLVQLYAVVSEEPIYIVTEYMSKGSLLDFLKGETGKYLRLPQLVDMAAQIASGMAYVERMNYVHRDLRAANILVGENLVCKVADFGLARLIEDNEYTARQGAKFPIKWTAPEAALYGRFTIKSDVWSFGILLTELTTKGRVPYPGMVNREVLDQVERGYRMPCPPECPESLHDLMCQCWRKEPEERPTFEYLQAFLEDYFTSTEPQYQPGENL
T6 sequence (P10721 26-976): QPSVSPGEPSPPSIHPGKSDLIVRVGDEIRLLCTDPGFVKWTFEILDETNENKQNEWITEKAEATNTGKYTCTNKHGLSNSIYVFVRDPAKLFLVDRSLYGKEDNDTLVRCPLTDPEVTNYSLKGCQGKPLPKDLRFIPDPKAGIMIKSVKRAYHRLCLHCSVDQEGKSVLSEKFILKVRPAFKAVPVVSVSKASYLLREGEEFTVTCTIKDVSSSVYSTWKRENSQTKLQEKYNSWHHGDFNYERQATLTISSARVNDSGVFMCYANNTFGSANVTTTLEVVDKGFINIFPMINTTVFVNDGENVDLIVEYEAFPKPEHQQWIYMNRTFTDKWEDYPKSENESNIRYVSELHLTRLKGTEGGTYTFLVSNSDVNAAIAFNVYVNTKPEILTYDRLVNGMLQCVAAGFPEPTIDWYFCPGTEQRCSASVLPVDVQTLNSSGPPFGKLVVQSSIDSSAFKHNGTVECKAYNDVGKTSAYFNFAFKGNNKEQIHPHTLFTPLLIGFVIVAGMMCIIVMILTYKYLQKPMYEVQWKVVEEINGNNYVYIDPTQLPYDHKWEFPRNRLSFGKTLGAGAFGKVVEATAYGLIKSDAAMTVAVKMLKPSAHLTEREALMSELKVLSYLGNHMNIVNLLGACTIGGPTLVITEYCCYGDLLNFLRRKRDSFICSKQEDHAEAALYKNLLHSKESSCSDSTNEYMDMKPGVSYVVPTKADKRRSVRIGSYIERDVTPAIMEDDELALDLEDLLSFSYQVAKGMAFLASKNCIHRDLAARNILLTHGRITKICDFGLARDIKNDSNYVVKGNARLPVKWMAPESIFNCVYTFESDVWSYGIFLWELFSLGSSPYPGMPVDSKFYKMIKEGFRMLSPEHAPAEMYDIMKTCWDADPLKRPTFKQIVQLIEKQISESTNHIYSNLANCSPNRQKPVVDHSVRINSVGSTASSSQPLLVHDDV
T3 sequence (P41240 whole entry): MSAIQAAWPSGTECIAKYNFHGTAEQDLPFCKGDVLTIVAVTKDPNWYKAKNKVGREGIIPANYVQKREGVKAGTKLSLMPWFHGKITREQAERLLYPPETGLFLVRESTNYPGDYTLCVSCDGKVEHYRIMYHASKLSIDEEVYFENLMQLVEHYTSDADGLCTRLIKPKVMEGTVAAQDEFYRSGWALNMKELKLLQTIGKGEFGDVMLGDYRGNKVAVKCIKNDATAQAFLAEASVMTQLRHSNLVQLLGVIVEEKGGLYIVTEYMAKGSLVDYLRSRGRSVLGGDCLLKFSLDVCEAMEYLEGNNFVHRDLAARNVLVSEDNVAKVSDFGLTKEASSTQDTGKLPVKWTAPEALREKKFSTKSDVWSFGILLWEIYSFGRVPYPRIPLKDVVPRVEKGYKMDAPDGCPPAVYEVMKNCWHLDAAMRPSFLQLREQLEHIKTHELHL

For `Cc1noc(C)c1C(=O)OCc1coc2ccccc2c1=O` [Compound 5a, (4-Oxo-4H-1-benzopyran-3-yl)methyl 3,5-dimethylisoxazole-4-carboxylate], the remaining activity at 20 µM on ABL1 was 96.9%; at CDK2/cyclin A1, 105%; on CSK, 93%; on PI3K (p110a/p65a) it was 110%; on PKCa it was 103%; at c-Kit, 95.3%. In addition, the values for the remaining activity at 20 µM at c-Src, at mTOR/FRAP1 and on p38a/MAPK14 were 113%, 112% and 83.1%, respectively.
